From patent US20020068057A1, “TREATMENT OF AUTOIMMUNE AND INFLAMMATORY DISORDERS” (priority 1996, published 2002)

How the values were obtained:
[1] = system: collagen type II induced arthritis; assay: Collagen-induced arthritis, Example 2B: limb involvement; format: in vivo, mouse; conditions: 2 mg/kg body weight i.p.
Procedure: (§1) Male DBA/1 mice were immunized intradermally with 100 μg of bovine type II collagen emulsified in complete Freund's adjuvant (Difco Laboratories, East Molsey, UK). The mean day of onset of arthritis was approximately one month after immunization. After the onset of clinically evident arthritis (erythema and/or swelling), mice were injected intraperitoneally with therapeutic agents. Arthritis was monitored for clinical score and paw swelling (measured with calipers) for 10 days, after which the mice were sacrificed and joints were processed for histology. Sera were collected for analysis on day 10. Therapeutic agents were administered on day 1 (onset), day 4 and day 7. The therapeutic agents included TNF receptor/IgG fusion protein (p55-sf2), anti-TNF antibody, anti-CD4 antibody, and methylprednisolone acetate.
Using the Experimental Procedure described above, groups of mice were subjected to treatment with TNF receptor/IgG protein (2 μg) (18 mice), TNF receptor/IgG protein (20 μg) (18 mice), TNF receptor/IgG protein (100 μg) (12 mice), anti-TNF monoclonal antibody (mAb) (300 μg) (17 mice), methylprednisolone acetate (6 mice), an irrelevant human IgG1 monoclonal antibody (mAb) (6 mice), or saline (control). The TNF receptor/IgG fusion protein, herein referred to as p55-sf2, (Butler et al., Cytokine (in press): (1994), was provided by Centocor, Inc., Malvern Pa.; it is dimeric and consists of the human p55 TNF receptor (extracellular domains) fused to a partial J sequence followed by the whole of the constant region of the hunan IgG1 heavy chain, itself associated with the constant region of a kappa light chain. The […] antibody was TN3-19.12, a neutralizing hamster IgG1 anti-TNFα/β monoclonal antibody (Sheehan, K. C. et al., J. Immunology 142:3884-3893 (1989)), and was provided by R. Schreiber, Washington University Medical School (St. Louis, Mo., USA), in conjunction with Celltech (Slough, UK). […]

[2] = system: collagen type II induced arthritis; assay: Collagen-induced arthritis, Example 2B: histology of PIP joints; format: in vivo, mouse; conditions: 2 mg/kg body weight i.p.
Procedure: as §1
Using the Experimental Procedure described above, groups of mice were subjected to treatment with TNF receptor/IgG protein (2 μg) (18 mice), TNF receptor/IgG protein (20 μg) (18 mice), TNF receptor/IgG protein (100 μg) (12 mice), anti-TNF monoclonal antibody (mAb) (300 μg) (17 mice), methylprednisolone acetate (6 mice), an irrelevant human IgG1 monoclonal antibody (mAb) (6 mice), or saline (control). […]

CC(=O)OCC(=O)[C@@]1(O)CC[C@H]2[C@@H]3C[C@H](C)C4=CC(=O)C=C[C@]4(C)[C@H]3[C@@H](O)C[C@@]21C [Methylprednisolone acetate, methylprednisolone acetate]
Increase (%) in limbs affected [1]: 33%
Limbs Affected (mean ± SEM) Day 1 ([1]; Day 1): 1.00 ± 0.00
Limbs Affected (mean ± SEM) Day 10 ([1]; Day 10): 1.50 ± 0.22
PIP Joints with Erosions (%) [2]: (67%)
PIP Joints with Erosions (number/total) [2]: 4/6
